# How the values were obtained:
# Type in all cases: biochemical
# [1] = tested on: template nucleic acid sequence; assay: Sequencing assays with different capping reagents (Example 6, FIG. 11); conditions: for fluorescence intensities for subsequent incorporation steps: capping between flows, compared with assay without capping reagents
# Experimental: Extension and sequencing performance were tested for a set of labeled nucleotides and capping reagents. The labeled nucleotides used in this example consisted of the dye-linkers as shown in FIG. 9A on each of the four nucleotides. A set of sequencing assays were performed by extending a primer against a template nucleic acid sequence in the presence of alternating flows of single fluorescently labeled nucleotides provided as cycles of U, A, C, and then G. In between each flow, the fluorescent labels were detected, cleaved, and optionally capped with one of ethyl propiolate (EP), iodoacetamide (IAc), methyl methanethiosulfonate (MMTS), or dipyridyl disulfide (DPDS). Each labeled nucleotide flow was then followed by a “dark tap” flow consisting of 100% unlabeled nucleotides to maintain phasing.
# FIG. 11 summarizes the results of the sequencing assays in table 1100. Table 1100 provides the results of uridine, adenosine, cytidine, and guanosine incorporation steps performed without any capping agents or in the presence of different capping agents. Assay A illustrates results from sequencing assays performed without capping reagents. Following a high-efficiency first nucleotide incorporation step with labeled uridine, subsequent nucleotide incorporation steps were suppressed, including subsequent uridine additions.
# [2] = tested on: template strand comprising the 3′ sequence TCAGTGGTTG; assay: Sequencing assay with capping reagent DPDS in U dark tap flows (Example 5); conditions: DPDS only in U dark tap flows; 100% labeled U, 10% A, 20% C, 10% G
# Description: In this example, a set of labeled nucleotide reagents were contacted to a primer hybridized to a template strand comprising the 3′ sequence TCAGTGGTTG under conditions suitable for extension. Fluorescently labeled adenosine, cytidine, and guanosine nucleotides were of the structure indicated in FIG. 10A, while labeled uridine nucleotides were of the structure provided in FIG. 10B. Different canonical nucleotide types were provided in separate, sequential flows, starting with uridine (U), followed by adenosine (A), cytidine (C), and finally guanosine (G), before repeating the cycle beginning again with U. Flows contained anywhere from 10% to 100% labeled nucleotides, with the remaining nucleotides provided in their natural, unlabeled form. In between each flow, the fluorescent labels were detected, cleaved, and optionally capped. Each labeled nucleotide flow was then followed by a “dark tap” flow consisting of 100% unlabeled nucleotides in order to maintain phasing.
# FIG. 10E summarizes the sequencing results of an assay utilizing flows with 100% labeled U, 10% labeled A, 20% labeled C, 10% labeled G, and the capping reagent DPDS. provided in only the U “dark tap” nucleotide flows. […] This was likely due to capping reagent cleavage from the nucleotide scars, as the linker cleavage reagent was likely also active in removing caps from scar moieties. […]
# [3] = tested on: template nucleic acid starting with AGTCTTTGGGTT; assay: Sequencing assays with capping or immolating linkers (Example 9, FIG. 16); conditions: DPDS in U dark tap flows; 100% labeled U, 10% A, 20% C, 10% G; compared to FIG. 16A
# Experimental: In this example, a set of sequencing assays were performed by extending a primer against the same template nucleic acid starting with AGTCTTTGGGTT in the presence of alternating flows of single fluorescently labeled nucleotides provided as cycles of U, A, C, and then G. In between each flow, the fluorescent labels were detected, cleaved, and optionally capped with dipyridyl disulfide (DPDS). Each labeled nucleotide flow was then followed by a “dark tap” flow consisting of 100% unlabeled nucleotides to maintain phasing. Furthermore, some assays utilized nucleotides with immolating linkers.
# In each figure, the y-axes provide fluorescence intensity following labeled nucleotide incorporation, and the four plots (from top to bottom) separately provide the results of uridine, adenosine, cytidine, and guanosine incorporation steps, with individual cycles progressing from left to right. In particular, a closer look is taken at the first 4 flow-cycles of U-A-C-G, where nucleotides are expected to be incorporated in the order of T-C (cycle 1; U, A, C, G flows being a complete single cycle), A-G (cycle 2), AAA-CCC (cycle 3), AA (cycle 4). Here nucleotides incorporated in each U-A-C-G flow-cycle are separated with square brackets. […]
Molecule,"effectiveness as capping reagent ([1]; among EP, IAc, MMTS, DPDS)","fluorescence intensities from subsequent nucleotide incorporations, comparison among capping assays ([1]; assays B-E)",fluorescence intensities for subsequent incorporation steps [1],incorporation efficiency for the next flow (A) [2],labeled A incorporation [3]
dipyridyl disulfide [DPDS],most effective,highest intensities,high intensities,increased the incorporation efficiency for the next flow,greatly enhanced
"C#CC(=O)OCC [EP, ethyl propiolate]",–,–,high intensities,–,–
"NC(=O)CI [IAc, iodoacetamide]",–,–,high intensities,–,–

# — patent US20240132955A1, “BENIGN SCAR-FORMING CLEAVABLE LINKERS” (Ultima Genomics, Inc., priority 2021, published 2024)
